The text below walks through data of publication PMC13245873, “Uridine cytidine kinases govern molnupiravir bioactivation and anti-SARS-CoV-2 activity” (PLOS Pathogens, 2026).

Data set [1] addresses T1, UCK1 (Homo sapiens, UniProt Q9HA47).
T1 construct: amino acids 21–235, N-terminal His tag
T1 sequence (Q9HA47 21-235): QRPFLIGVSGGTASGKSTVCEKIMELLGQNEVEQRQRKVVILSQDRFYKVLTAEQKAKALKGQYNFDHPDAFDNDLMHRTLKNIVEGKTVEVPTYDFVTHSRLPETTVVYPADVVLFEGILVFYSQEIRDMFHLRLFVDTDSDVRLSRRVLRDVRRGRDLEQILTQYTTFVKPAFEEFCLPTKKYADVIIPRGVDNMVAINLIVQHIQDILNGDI
The data set is described as follows: X-ray co-crystal structure ([…] Å, with NHC). Type of data set: binding.

Data set [2] concerns the target T2, UCK2 (Homo sapiens, UniProt Q9BZX2).
T2 construct: recombinant, C-terminal His tag
T2 sequence (Q9BZX2 2-261): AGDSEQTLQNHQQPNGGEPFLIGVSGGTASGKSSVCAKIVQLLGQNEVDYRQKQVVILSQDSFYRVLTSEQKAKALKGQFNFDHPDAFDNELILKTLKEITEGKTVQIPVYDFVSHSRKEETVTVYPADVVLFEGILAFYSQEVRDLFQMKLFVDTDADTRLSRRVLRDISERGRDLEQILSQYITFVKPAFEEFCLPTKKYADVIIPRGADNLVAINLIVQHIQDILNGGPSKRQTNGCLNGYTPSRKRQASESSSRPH
The experiment in a line: ADP-Glo-coupled kinase kinetics (kcat/Km); DSF dose-response. Type of data set: biochemical. In general terms: ADP-Glo turns the ADP formed in a reaction into a luminescent signal.

Data set [3] has as its target T3, UCK1 (Homo sapiens, UniProt Q9HA47).
T3 construct: recombinant, N-terminal His tag
T3 sequence (Q9HA47 1-277): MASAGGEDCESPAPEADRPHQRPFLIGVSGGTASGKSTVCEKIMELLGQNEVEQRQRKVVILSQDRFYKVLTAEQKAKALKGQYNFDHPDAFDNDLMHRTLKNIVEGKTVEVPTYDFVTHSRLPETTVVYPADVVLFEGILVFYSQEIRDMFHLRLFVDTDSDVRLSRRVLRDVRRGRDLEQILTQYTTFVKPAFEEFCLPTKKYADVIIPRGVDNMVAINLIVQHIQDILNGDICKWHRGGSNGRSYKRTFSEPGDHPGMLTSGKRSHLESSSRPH
The experiment in a line: ADP-Glo-coupled kinase kinetics; DSF dose-response. Type of data set: biochemical.

Substrate in data set [4]: O=c1nc(NO)ccn1[C@@H]1O[C@H](CO)[C@@H](O)[C@H]1O
The experiment in a line: ADP-Glo-coupled kinase kinetics (Km); DSF dose-response. Type of data set: biochemical, Homo sapiens. Particulars: ATP, Mg2+. An excerpt:
ADP-Glo-coupled kinase kinetics (Km); DSF dose-response on UCK2 | NHC was a substrate for both UCK1 and UCK2

Substrate in data set [5]: O=c1nc(NO)ccn1[C@@H]1O[C@H](CO)[C@@H](O)[C@H]1O
The data set is described as follows: purified protein. Type of data set: binding, Homo sapiens. Particulars: AMPPNP (ATP site) and Mg2+ active site; π-stacking with F86 and F117; H-bonds with D65, D87, Y115, H120, R160 and the ATP gamma-phosphate.

Data set [6] concerns the molecule itself. The data set is described as follows: SEC; gel filtration of purified recombinant UCK1 (amino acids 21–235) on a Superdex200 increase 10/300 GL column; single peak.

Consider `Nc1ncnc2c1ncn2[C@@H]1O[C@H](CO[P@](=O)(O)O[P@](=O)(O)NP(=O)(O)O)[C@@H](O)[C@H]1O` [AMPPNP, adenosine 5’-(β,γ-imido)triphosphate], for which the “X-ray co-crystal structure (2.40 Å, with NHC)” value in data set [1] was “AMPPNP binds in a pocket closer to the surface, and is positioned by H-bonds between the phosphate group and residues”.

Consider `Nc1ccn([C@@H]2O[C@H](CO)[C@@H](O)[C@H]2O)c(=O)n1` [C, cytidine], for which, in data set [2], the “ADP-Glo-coupled kinase kinetics (kcat/Km); DSF dose-response” value was found to be 56666.7 M⁻¹ s⁻¹. In data set [3], the “ADP-Glo-coupled kinase kinetics; DSF dose-response” value is recorded as “Using cytidine as the substrate, the ADP-Glo-coupled kinase activity assay produced kinetic parameters”.

B1: UCK2 (Homo sapiens) (protein)
chain: T2 sequence (Q9BZX2 2-261)
notes: recombinant, C-terminal His tag
The Km is the substrate concentration at which the rate is half of its maximum. B1: in data set [4], the Km is 260 ± 70 µM.

B2: human UCK1 construct (amino acids 21–235) (enzyme, UniProt Q9HA47 21-235, looked up)
chain: T1 sequence (Q9HA47 21-235)
notes: uridine cytidine kinase 1 (UCK1), human, residues 21-235; cDNA optimized for expression in E. coli, in pET24a(+); Tetramer by gel filtration and in the crystal's asymmetric unit; also called hUCK1; uridine cytidine kinase 1; source: E. coli BL21 (DE3), purified (IMAC, SEC)
As a reminder, the stoichiometry N is the number of molecules, sites or subunits per partner or assembly. In the case of B2, the Km in data set [5] is 1140 ± 320 µM. The “stoichiometry N” value in data set [6] worked out at 4.
